The supplement of paper PMC13380429

How the values were obtained:
Conditions in all cases: 72 h
HepG2 [1] = assay: cell viability relative to DMSO; higher = less toxic
U2OS [2] = assay: as above
Vero E6 [3] = assay: as above
Calu-3 [4] = assay: as above
Caco-2 [5] = assay: as above
HepG2 [6] = assay: relative viability EC50 (midpoint between 100% and the lowest measured viability); higher = less toxic
U2OS [7] = assay: as above
Vero E6 [8] = assay: as above
Calu-3 [9] = assay: as above
Caco-2 [10] = assay: as above
HepG2 [11] = assay: drug sensitivity score (DSS) for viability; higher = more toxic; extreme values may be limits of the assay
U2OS [12] = assay: as above
Vero E6 [13] = assay: as above
Calu-3 [14] = assay: as above
Caco-2 [15] = assay: as above

| Compound | cell viability (HepG2 [1]; 1 nM) | cell viability (HepG2 [1]; 10 nM) | cell viability (HepG2 [1]; 100 nM) | cell viability (HepG2 [1]; 1000 nM) | cell viability (HepG2 [1]; 10000 nM) | cell viability (U2OS [2]; 1 nM) | cell viability (U2OS [2]; 10 nM) | cell viability (U2OS [2]; 100 nM) | cell viability (U2OS [2]; 1000 nM) | cell viability (U2OS [2]; 10000 nM) | cell viability (Vero E6 [3]; 1 nM) | cell viability (Vero E6 [3]; 10 nM) | cell viability (Vero E6 [3]; 100 nM) | cell viability (Vero E6 [3]; 1000 nM) | cell viability (Vero E6 [3]; 10000 nM) | cell viability (Calu-3 [4]; 1 nM) | cell viability (Calu-3 [4]; 10 nM) | cell viability (Calu-3 [4]; 100 nM) | cell viability (Calu-3 [4]; 1000 nM) | cell viability (Calu-3 [4]; 10000 nM) | cell viability (Caco-2 [5]; 1 nM) | cell viability (Caco-2 [5]; 10 nM) | cell viability (Caco-2 [5]; 100 nM) | cell viability (Caco-2 [5]; 1000 nM) | cell viability (Caco-2 [5]; 10000 nM) | relative viability EC50 (HepG2 [6]) | relative viability EC50 (U2OS [7]) | relative viability EC50 (Vero E6 [8]) | relative viability EC50 (Calu-3 [9]) | relative viability EC50 (Caco-2 [10]) | drug sensitivity score (HepG2 [11]) | drug sensitivity score (U2OS [12]) | drug sensitivity score (Vero E6 [13]) | drug sensitivity score (Calu-3 [14]) | drug sensitivity score (Caco-2 [15]) |
| --- | --- | --- | --- | --- | --- | --- | --- | --- | --- | --- | --- | --- | --- | --- | --- | --- | --- | --- | --- | --- | --- | --- | --- | --- | --- | --- | --- | --- | --- | --- | --- | --- | --- | --- | --- |
| C=C1/C(=C\C=C2/CCC[C@]3(C)[C@@H]([C@H](C)/C=C/[C@@H](O)C4CC4)CC[C@@H]23)C[C@@H](O)C[C@@H]1O [calcipotriol] | 101% | 88.5% | 95% | 99.6% | 94.6% | 99.5% | 96.9% | 99% | 94.8% | 93.5% | 97.5% | 96.7% | 98.2% | 92.3% | 91.9% | 95.4% | 108% | 102% | 93.7% | 96% | 94.7% | 88.6% | 99.6% | 88.3% | 89.9% | > 10 µM | > 10 µM | > 10 µM | > 10 µM | > 10 µM | 0 | 0 | 0 | 0 | 0 |
| c1coc(-c2nnc3sc(C4CCCCC4)nn23)c1 [cardionogen-1] | 98.7% | 97.1% | 99.4% | 88.3% | 44.6% | 95% | 100% | 95.9% | 97.8% | 93.3% | 98.3% | 97.1% | 95.5% | 98% | 86.6% | 109% | 97.4% | 109% | 102% | 97.1% | 100% | 94.7% | 104% | 81.1% | 89.7% | 1.69 µM | > 10 µM | > 10 µM | > 10 µM | > 10 µM | 4.9 | 0 | 0.3 | 0 | 2.2 |
| CC(C)c1ccc(C(=O)N=C(N)N)cc1S(C)(=O)=O [cariporide] | 102% | 84.4% | 89.7% | 98% | 95.6% | 100% | 98.2% | 100% | 96.1% | 97% | 102% | 101% | 106% | 108% | 92.3% | 102% | 96.7% | 93.6% | 96.3% | 106% | 109% | 107% | 102% | 89.7% | 107% | > 10 µM | > 10 µM | > 10 µM | > 10 µM | > 10 µM | 0 | 0 | 0 | 0 | 0 |
| NCCC(=O)N[C@@H](Cc1c[nH]cn1)C(=O)O [carnosine] | 111% | 101% | 97% | 101% | 12% | 96% | 97.2% | 92.3% | 99.1% | 28.7% | 94.3% | 95.3% | 95% | 95.5% | 17.9% | 95% | 93.4% | 104% | 99.4% | 48.6% | 99.5% | 97.8% | 92.3% | 88.6% | 15.4% | 3.22 µM | 3.07 µM | 2.74 µM | 3.08 µM | 2.08 µM | 4.8 | 4.1 | 5.2 | 2.8 | 6.6 |
| NC(=O)CN1Cc2ccccc2OC1=O [caroxazone] | 101% | 94.6% | 101% | 93.1% | 100% | 100% | 99% | 101% | 95.3% | 102% | 99.5% | 99.8% | 101% | 96.9% | 96.4% | 103% | 93.2% | 93.7% | 105% | 101% | 109% | 102% | 101% | 96% | 104% | > 10 µM | > 10 µM | > 10 µM | > 10 µM | > 10 µM | 0 | 0 | 0 | 0 | 0 |
| CC(=O)OCC1=C(C(=O)O)N2C(=O)[C@@H](NC(=O)Cc3cccs3)[C@H]2SC1 [cephalothin] | 87.9% | 102% | 86% | 86.8% | 86.3% | 104% | 98.4% | 94.1% | 99.4% | 104% | 100% | 97.6% | 93.6% | 88.7% | 110% | 117% | 94.2% | 104% | 103% | 106% | 110% | 103% | 102% | 98.5% | 119% | > 10 µM | > 10 µM | > 10 µM | > 10 µM | > 10 µM | 0.8 | 0 | 0 | 0 | 0 |
| CC(CN(C)C)C(C)(O)Cc1ccc(Cl)cc1 (stereo not given) [clobutinol] | 111% | 95.5% | 105% | 97.6% | 88.4% | 97.3% | 97.4% | 97.7% | 96.5% | 96.9% | 101% | 98.6% | 102% | 89.6% | 93.2% | 98.7% | 106% | 106% | 104% | 98.1% | 99.1% | 118% | 100% | 108% | 97.4% | > 10 µM | > 10 µM | > 10 µM | > 10 µM | > 10 µM | 0.1 | 0 | 0.1 | 0 | 0 |
